Assay results published in patent publication US10385012B2, “Thioamides and amides for controlling animal pests” (BASF SE, priority 2013, dated 2019).

Columns and labels:
Type in all cases: in vivo
[1] = tested on: Silverleaf whitefly (Bemisia argentifolii); assay: Silverleaf whitefly test on sprayed cotton plants; settings: 72 h, whitefly adults on cotton, 3 days after treatment, in comparison with untreated controls
Method: The active compounds were formulated in cyclohexanone as a 10,000 ppm solution supplied in 1.3 ml ABgene® tubes. These tubes were inserted into an automated electrostatic sprayer equipped with an atomizing nozzle and they served as stock solutions for which lower dilutions were made in 50% acetone:50% water (v/v). A nonionic surfactant (Kinetic®) was included in the solution at a volume of 0.01% (v/v). Cotton plants at the cotyledon stage (one plant per pot) were sprayed by an automated electrostatic plant sprayer equipped with an atomizing spray nozzle. The plants were dried in the sprayer fume hood and then removed from the sprayer. Each pot was placed into a plastic cup and 10 to 12 whitefly adults (approximately 3-5 days old) were introduced. The insects were collected using an aspirator and 0.6 cm, nontoxic Tygon® tubing (R-3603) connected to a barrier pipette tip. The tip, containing the collected insects, was then gently inserted into the soil containing the treated plant, allowing insects to crawl out of the tip to reach the foliage for feeding. Cups were covered with a reusable screened lid (150-micron mesh polyester screen PeCap from Tetko, Inc.). […] Mortality was assessed 3 days after treatment, compared to untreated control plants.

[2] = tested on: boll weevil (Anthonomus grandis); assay: Boll weevil control, 24-well microtiter plates with insect diet and eggs; settings: 120 h, egg and larval mortality after 5 days, in comparison with untreated controls
Method: (§1) For evaluating control of boll weevil (Anthonomus grandis) the test unit consisted of 24-well-microtiter plates containing an insect diet and 20-30 A. grandis eggs. The compounds were formulated using a solution containing 75% v/v water and 25% v/v DMSO. Different concentrations of formulated compounds were sprayed onto the insect diet at 20 μl, using a custom built micro atomizer, at two replications. After application, microtiter plates were incubated at about 23±1° C. and about 50±5% relative humidity for 5 days. Egg and larval mortality was then visually assessed.

[3] = tested on: Green soldier stink bug (Nezara viridula); assay: Green soldier stink bug test on sprayed soybean pods; settings: 120 h, 3rd instar N. viridula on soybean pods, after 5 days, in comparison with untreated controls
Method: The active compound is dissolved at the desired concentration in a mixture of 1:1 (vol:vol) distilled water:aceteone. Surfactant (Kinetic HV) is added at a rate of 0.01% (vol/vol). The test solution is prepared at the day of use. Soybean pods were placed in microwavable plastic cups lined with moist filter paper and inoculated with ten 3rd instar N. viridula. Using a hand atomizer, an approximately 2 ml solution is sprayed into each cup. Treated cups were kept at about 28-29° C. and relative humidity of about 50-60%. Percent mortality was recorded after 5 days.

[4] = tested on: Southern armyworm (Spodoptera eridania); assay: Southern armyworm test on sprayed lima bean plants; settings: 500 ppm; armyworm larvae on lima bean, 4 days after treatment; in comparison with untreated controls
Method: The active compounds were formulated in cyclohexanone as a 10,000 ppm solution supplied in 1.3 ml ABgene® tubes. These tubes were inserted into an automated electrostatic sprayer equipped with an atomizing nozzle and they served as stock solutions for which lower dilutions were made in 50% acetone:50% water (v/v). A nonionic surfactant (Kinetic®) was included in the solution at a volume of 0.01% (v/v). Lima bean plants (variety Sieva) were grown 2 plants to a pot and selected for treatment at the 1st true leaf stage. Test solutions were sprayed onto the foliage by an automated electro-static plant sprayer equipped with an atomizing spray nozzle. The plants were dried in the sprayer fume hood and then removed from the sprayer. Each pot was placed into perforated plastic bags with a zip closure. Ten to 11 armyworm larvae were placed into the bag and the bags zipped closed. Test plants were maintained in a growth room at 25° C. and 20-40% relative humidity for 4 days, avoiding direct exposure to fluorescent light (24 hour photoperiod) to prevent trapping of heat inside the bags. Mortality and reduced feeding were assessed 4 days after treatment, compared to untreated control plants.

[5] = tested on: yellow fever mosquito (Aedes aegypti); assay: whole plant or invertebrate; settings: 48 h, larval mortality after 2 days, in comparison with untreated controls
Method: For evaluating control of yellow fever mosquito (Aedes aegypti) the test unit consisted of 96-well-microtiter plates containing 200 μl of tap water per well and 5-15 freshly hatched A. aegypti larvae. The compounds or mixtures were formulated using a solution containing 75% water and 25% DMSO. Different concentrations of formulated compounds or mixtures were sprayed onto the insect diet at 2.5 μl, using a custom built micro atomizer, at two replications. After application, microtiter plates were incubated at 28±1° C., 80±5% RH for 2 days. Larval mortality was then visually assessed.

[6] = tested on: Mediterranean fruitfly (Ceratitis capitata); assay: Mediterranean fruitfly control, microtiter plates with insect diet and eggs; settings: 120 h, egg and larval mortality after 5 days, in comparison with untreated controls
Method: as §1, with “Mediterranean fruitfly (Ceratitis capitata)” for “boll weevil (Anthonomus grandis)”, “microtiter” for “24-well-microtiter”, “50-80 C. capitata” for “20-30 A. grandis”, “5” for “20”, “28±1°” for “23±1°”, “80±5%” for “50±5%”

For C#Cc1ccc(CC(C#N)(C(N)=S)c2ccccc2)cc1 (centres unmarked) [II-1, 2-cyano-3-(4-ethynylphenyl)-2-phenylpropanethioamide], the mortality at 500 ppm [1] was no less than 75%, the mortality at 2500 ppm [2] was no less than 75% and the mortality at 500 ppm [3] was no less than 75%.
For N#CC(Cc1ccc(C(F)(F)F)cc1)(C(N)=O)c1ccc(F)cc1 (centres unmarked) [II-2], the mortality [4] was “at least 75%”.
In the case of C#Cc1ccc(CC(C#N)(C(=S)NC)c2ccc(F)cc2)cc1 (centres unmarked) [III-1, 2-cyano-3-(4-ethynylphenyl)-2-(4-fluorophenyl)-N-methyl-propanethioamide], the mortality at 2500 ppm [2] is reported as no less than 75% and the mortality at 2500 ppm [5] is reported as no less than 75%.
For C#Cc1ccc(CC(C#N)(C(=O)NC)c2ccc(F)cc2)cc1 (centres unmarked) [III-4, 2-cyano-3-(4-ethynylphenyl)-2-(4-fluorophenyl)-N-methyl-propanamide], the mortality at 2500 ppm [6] was no less than 75% and the mortality at 2500 ppm [2] was no less than 75%.
